Reference: patent US20240158446A1, “CYCLIC COMPOUND HAVING SELECTIVE INHIBITORY ACTION ON KRAS OVER HRAS AND NRAS” (CHUGAI SEIYAKU KABUSHIKI KAISHA, priority 2021, published 2024)
Like-named read-outs stand apart in the source and are kept apart here.

Legend:
[1] = biological target: GDP-bound KRAS wild-type protein (Homo sapiens, UniProt P01116); assay: Binding to KRAS by surface plasmon resonance (SPR), Single Cycle Kinetics
[2] = biological target: GDP-bound NRAS wild-type protein (Homo sapiens, UniProt P01111); assay: Binding to NRAS by surface plasmon resonance (SPR), Single Cycle Kinetics; details: for NRAS/KRAS (ratio of KD value for NRAS to KD value for KRAS) / ratio of the KD value with respect to GDP-bound NRAS wild-type protein to the KD value with respect to KRAS: SPR; for NRAS/KRAS (ratio of KD value for NRAS to KD value for KRAS): GDP-bound NRAS wild-type protein vs GDP-bound KRAS wild-type protein; for NRAS/KRAS (ratio of KD value with respect to GDP-bound NRAS wild-type protein to KD value with respect to KRAS): SPR KD ratio NRAS/KRAS, class symbols
Chain of GDP-bound NRAS wild-type protein (P01111 whole entry): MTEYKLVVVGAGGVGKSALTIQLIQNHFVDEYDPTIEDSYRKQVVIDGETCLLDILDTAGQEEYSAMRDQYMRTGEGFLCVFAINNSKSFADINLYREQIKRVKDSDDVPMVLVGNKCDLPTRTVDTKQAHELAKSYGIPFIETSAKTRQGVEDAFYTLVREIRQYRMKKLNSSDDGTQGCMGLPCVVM

[3] = biological target: GDP-bound HRAS wild-type protein (Homo sapiens, UniProt P01112); assay: Binding to HRAS by surface plasmon resonance (SPR), Single Cycle Kinetics; details: for HRAS/KRAS (ratio of KD value for HRAS to KD value for KRAS) / ratio of the KD value with respect to GDP-bound HRAS wild-type protein to the KD value with respect to KRAS: SPR; for HRAS/KRAS (ratio of KD value for HRAS to KD value for KRAS): GDP-bound HRAS wild-type protein vs GDP-bound KRAS wild-type protein; for HRAS/KRAS (ratio of KD value with respect to GDP-bound HRAS wild-type protein to KD value with respect to KRAS): SPR KD ratio HRAS/KRAS, class symbols
Chain of GDP-bound HRAS wild-type protein (P01112 whole entry): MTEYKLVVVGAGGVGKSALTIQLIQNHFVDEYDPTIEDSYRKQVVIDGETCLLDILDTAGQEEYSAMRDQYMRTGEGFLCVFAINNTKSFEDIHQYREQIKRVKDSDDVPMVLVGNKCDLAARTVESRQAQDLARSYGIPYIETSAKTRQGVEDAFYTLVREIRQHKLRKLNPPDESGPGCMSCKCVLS

[4] = tested on: human lung cancer strain NCI-H441;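 also: cell proliferation inhibition after four days measured by CellTiter-Glo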
[5] = SPR, Single Cycle Kinetics, 1:1 binding model, read-out: KD value with respect to GDP-bound KRAS wild-type protein
[6] = SPR, Single Cycle Kinetics, GDP-bound KRAS wild-type protein, read-out: KRAS KD
[7] = read-out: NCI-H441 cell proliferation inhibitory activity, 50% proliferation inhibitory concentration (IC50 value), NCI-H441, four days, CellTiter-Glo
[8] = SPR Single Cycle Kinetics, GDP-bound KRAS wild-type protein, 1:1 binding model, read-out: KRAS KD

Chain of GDP-bound KRAS wild-type protein (P01116 whole entry): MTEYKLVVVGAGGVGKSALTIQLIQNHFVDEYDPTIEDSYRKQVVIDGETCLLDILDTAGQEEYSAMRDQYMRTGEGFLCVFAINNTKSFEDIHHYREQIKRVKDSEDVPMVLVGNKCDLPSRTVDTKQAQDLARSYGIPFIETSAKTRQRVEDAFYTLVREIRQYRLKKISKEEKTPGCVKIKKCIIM

| SMILES | Kd [1, 6] | NRAS/KRAS (ratio of KD value for NRAS to KD value for KRAS) [2] | HRAS/KRAS (ratio of KD value for HRAS to KD value for KRAS) [3] | IC50 [4] | Kd [1, 8] | NRAS/KRAS (ratio of KD value with respect to GDP-bound NRAS wild-type protein to KD value with respect to KRAS) [2] | HRAS/KRAS (ratio of KD value with respect to GDP-bound HRAS wild-type protein to KD value with respect to KRAS) [3] | further results |
| --- | --- | --- | --- | --- | --- | --- | --- | --- |
| CCC[C@H]1C(=O)N[C@@H]([C@@H](C)CC)C(=O)N(C)CC(=O)N(C)[C@H]2C/C=C\CCN(C2=O)[C@@H](Cc2ccc(C)cc2)C(=O)N(C)CC(=O)N[C@@H](CCc2ccc(C(F)(F)F)c(OC)c2)C(=O)N2C[C@H](OCC)C[C@H]2C(=O)N(C)C2(CCC2)C(=O)N(C)[C@@H](C2CCCC2)C(=O)N(C)[C@H](C(=O)N2CCCC2)CC(=O)N1C [PP3106, (2S,8S,12R,14S,20S,23S,27S,30S,36S,38Z)-20-cyclopentyl-12-ethoxy-8-[2-[3-methoxy-4-(trifluoromethyl)phenyl]ethyl]-4,16,19,22,26,32,35-heptamethyl-30-[(1S)-1-methylpropyl]-27-propyl-2-(p-tolylmethyl)-23-(pyrrolidine-1-carbonyl)spiro[1,4,7,10,16,19,22,26,29,32,35-undecazatricyclo[34.5.1.0^10,14]dotetracont-38-ene-17,1′-cyclobutane]-3,6,9,15,18,21,25,28,31,34,42-undecone] | 0.048 nM | A (a compound having 10 or more and less than 20 is denoted as A) | A (a compound having 10 or more and less than 20 is denoted as A) | – | – | – | – | Kd [1, 5]: 0.048 nM; ratio of the KD value with respect to GDP-bound NRAS wild-type protein to the KD value with respect to KRAS [2]: A (a compound having 10 or more and less than 20 is denoted as A); ratio of the KD value with respect to GDP-bound HRAS wild-type protein to the KD value with respect to KRAS [3]: A (a compound having 10 or more and less than 20 is denoted as A); IC50 [4, 7]: 2.9 nM |
| CCOC[C@H]1C(=O)N[C@@H]([C@@H](C)OCC)C(=O)N(C)CC(=O)N(C)[C@H]2C/C=C\CCN(C2=O)[C@@H](Cc2ccc(C)cc2)C(=O)N(C)CC(=O)N[C@@H](CCc2cc(F)c(C(F)(F)F)c(F)c2)C(=O)N2C[C@@H](C)C[C@H]2C(=O)NC2(CC(C)(C)C2)C(=O)N(C)[C@@H](C2CCCC2)C(=O)N(C)[C@H](C(=O)N(C)CC)CC(=O)N1C [PP2422] | 0.46 nM | A (a compound having 10 or more and less than 20 is denoted as A) | A (a compound having 10 or more and less than 20 is denoted as A) | 117 nM | – | – | – | – |
| CCC[C@H]1C(=O)N[C@@H]([C@@H](C)CC)C(=O)N(C2CC2)CC(=O)N(C)[C@H]2C/C=C\CCN(C2=O)[C@@H](Cc2ccc(C(F)(F)F)cc2)C(=O)N(C)CC(=O)N[C@@H](CCc2cc(F)c(C(F)(F)F)c(F)c2)C(=O)N2C[C@H](OCC)C[C@H]2C(=O)N(C)C2(CCC2)C(=O)N(C)[C@@H](C2CCCC2)C(=O)N(C)[C@H](C(=O)N2CCCCC2)CC(=O)N1C [PP3110] | 4.3 nM | A (a compound having 10 or more and less than 20 is denoted as A) | A (a compound having 10 or more and less than 20 is denoted as A) | – | – | – | – | Kd [1, 5]: 4.3 nM; ratio of the KD value with respect to GDP-bound NRAS wild-type protein to the KD value with respect to KRAS [2]: A (a compound having 10 or more and less than 20 is denoted as A); ratio of the KD value with respect to GDP-bound HRAS wild-type protein to the KD value with respect to KRAS [3]: A (a compound having 10 or more and less than 20 is denoted as A); IC50 [4, 7]: 69.9 nM |
| CCC(CC)[C@H]1C(=O)N(C)[C@H](C(=O)N(C)C)CC(=O)N(C)[C@@H](COC)C(=O)N[C@@H]([C@@H](C)CC)C(=O)N2CCC[C@H]2C(=O)N(C)[C@H]2C/C=C\CCN(C2=O)[C@@H](Cc2ccc(C(F)(F)F)cc2)C(=O)N(C)CC(=O)N[C@@H](CCc2ccc(Cl)c(Cl)c2)C(=O)N2C[C@H](OC3CCC3)C[C@H]2C(=O)NC2(CC(C)(C)C2)C(=O)N1C [PP2645] | – | – | – | 86.7 nM | 1.1 nM | AA (a compound having 20 or more is denoted as AA) | A (a compound having 10 or more and less than 20 is denoted as A) | – |
| CCOC[C@H]1C(=O)N[C@@H]([C@@H](C)CC)C(=O)N(C)CC(=O)N(C)[C@H]2C/C=C\CCN(C2=O)[C@@H](Cc2ccc(C(F)(F)F)cc2)C(=O)N(C)CC(=O)N[C@@H](CCc2ccc(C(F)(F)F)c(OC)c2)C(=O)N2C[C@H](OCC)C[C@H]2C(=O)NC2(CC(C)(C)C2)C(=O)N(C)[C@@H](CC(C)(C)C)C(=O)N(C)[C@H](C(=O)N(C)C)CC(=O)N1C [PP2736] | – | – | – | 7.5 nM | 0.061 nM | A (a compound having 10 or more and less than 20 is denoted as A) | A (a compound having 10 or more and less than 20 is denoted as A) | – |
| CCO[C@@H]1C[C@H]2C(=O)NC3(CCC3)C(=O)N(C)[C@@H](C3CCCC3)C(=O)N(C)[C@H](C(=O)N3CCOCC3)CC(=O)N(C)[C@@H](CC3CC3)C(=O)N[C@@H]([C@@H](C)CC)C(=O)N(C)CC(=O)N(C)[C@H]3C/C=C\CCN(C3=O)[C@@H](Cc3ccc(C(F)(F)F)cc3)C(=O)N(C)CC(=O)N[C@@H](CCc3cc(F)c(C(F)(F)F)c(F)c3)C(=O)N2C1 [PP1283] | – | – | – | 42.6 nM | – | – | – | Kd ([1]; SPR, Single Cycle Kinetics, 1:1 binding model, GDP-bound KRAS wild-type protein, read-out: KRAS KD): 0.2 nM; NRAS/KRAS (ratio of KD value for NRAS to KD value for KRAS) ([2]; KD ratio class): AA (a compound having 20 or more is denoted as AA); HRAS/KRAS (ratio of KD value for HRAS to KD value for KRAS) ([3]; KD ratio class): A (a compound having 10 or more and less than 20 is denoted as A) |
| CC[C@H](C)[C@@H]1NC(=O)[C@H](CC)N(C)C(=O)C[C@@H](C(=O)N(C)C)N(C)C(=O)[C@H](C2CCCC2)N(C)C(=O)C2(CCC2)NC(=O)[C@@H]2CSCCN2C(=O)[C@H](CCc2cc(F)c(C(F)(F)F)c(F)c2)NC(=O)CN(C)C(=O)[C@H](Cc2ccc(C(F)(F)F)cc2)N2CC/C=C\C[C@@H](C2=O)N(C)C(=O)CN(C)C1=O [PP1137, (2S,8S,15R,21S,24S,28S,31S,37S,39Z)-21-cyclopentyl-8-[2-[3,5-difluoro-4-(trifluoromethyl)phenyl]ethyl]-28-ethyl-N,N,4,20,23,27,33,36-octamethyl-31-[(1S)-1-methylpropyl]-3,6,9,16,19,22,26,29,32,35,43-undecaoxo-2-[[4-(trifluoromethyl)phenyl]methyl]spiro[13-thia-1,4,7,10,17,20,23,27,30,33,36-undecazatricyclo[35.5.1.0^10,1^5]tritetracont-39-ene-18,1′-cyclobutane]-24-carboxamide] | 0.11 nM | AA (a compound having 20 or more is denoted as AA) | A (a compound having 10 or more and less than 20 is denoted as A) | 142 nM | – | – | – | – |
| CCCC[C@H]1C(=O)NC2(CCC2)C(=O)N(C)[C@@H](C2CCCC2)C(=O)N(C)[C@H](C(=O)N(C)C)CC(=O)N(C)[C@@H](CC)C(=O)N[C@@H]([C@@H](C)CC)C(=O)N(C)CC(=O)N(C)[C@H]2C/C=C\CCN(C2=O)[C@@H](Cc2ccc(C(F)(F)F)cc2)C(=O)N(C)CC(=O)N[C@@H](CCc2cc(F)c(C(F)(F)F)c(F)c2)C(=O)N1C [PP1150] | 0.17 nM | AA (a compound having 20 or more is denoted as AA) | A (a compound having 10 or more and less than 20 is denoted as A) | 42.7 nM | – | – | – | – |
| CCOC[C@H]1C(=O)N[C@@H]([C@@H](C)CC)C(=O)N(C)CC(=O)N(C)[C@H]2C/C=C\CCN(C2=O)[C@@H](Cc2ccc(C(F)(F)F)cc2)C(=O)N(C)CC(=O)N[C@@H](CCc2ccc(Cl)c(Cl)c2)C(=O)N2C[C@H](OCC)C[C@H]2C(=O)NC2(CC(C)(C)C2)C(=O)N(C)[C@@H](CC2CCC2)C(=O)N(C)[C@H](C(=O)N(C)C)CC(=O)N1C [PP2767] | – | – | – | 62.6 nM | 0.49 nM | A (a compound having 10 or more and less than 20 is denoted as A) | A (a compound having 10 or more and less than 20 is denoted as A) | – |
| CCOC[C@H]1C(=O)N[C@@H]([C@@H](C)CC)C(=O)N(C2CC2)CC(=O)N(C)[C@H]2C/C=C\CCN(C2=O)[C@@H](Cc2ccc(C)cc2)C(=O)N(C)CC(=O)N[C@@H](CCc2ccc(Cl)c(Cl)c2)C(=O)N2C[C@H](OCC)C[C@H]2C(=O)NC2(CC(C)(C)C2)C(=O)N(C)[C@@H](CC2CCC2)C(=O)N(C)[C@H](C(=O)N(C)C)CC(=O)N1C [PP2762] | – | – | – | 122 nM | 2.9 nM | A (a compound having 10 or more and less than 20 is denoted as A) | A (a compound having 10 or more and less than 20 is denoted as A) | – |
| CCCOC[C@H]1C(=O)N[C@@H]([C@@H](C)CC)C(=O)N2CCC[C@H]2C(=O)N(C)[C@H]2C/C=C\CCN(C2=O)[C@@H](Cc2ccc(C)cc2)C(=O)N(C)CC(=O)N[C@@H](CCc2ccc(C(F)(F)F)c(OC)c2)C(=O)N2C[C@@H](C)C[C@H]2C(=O)NC2(CC(C)(C)C2)C(=O)N(C)[C@@H](C2CCCC2)C(=O)N(C)[C@H](C(=O)N(C)CC)CC(=O)N1C [PP2429] | 4.5 nM | A (a compound having 10 or more and less than 20 is denoted as A) | B (a compound having 3 or more and less than 10 is denoted as B) | 8.3 nM | – | – | – | – |
